In PubChem BioAssay (NCI):
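Where inhibition never reached the appropriate level, the endpoint shown equals the highest concentration tested. Otherwise, values were interpolated linearly from a five-concentration, 48-hour dose response in 96-well plates. GI50 = concentration required for 50% inhibition of growth. TGI: concentration producing complete growth inhibition.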

Legend:
Test in all cases: NCI anticancer screen, dose series, 48 h
NCI-H226 lung = system: NCI-H226 lung
NCI-H23 lung = system: NCI-H23 lung
NCI-H460 lung = system: NCI-H460 lung
NCI-H522 lung = system: NCI-H522 lung
NCI/ADR-RES ovarian = system: NCI/ADR-RES ovarian
OVCAR-3 ovarian = system: OVCAR-3 ovarian
OVCAR-4 ovarian = system: OVCAR-4 ovarian
OVCAR-5 ovarian = system: OVCAR-5 ovarian
OVCAR-8 ovarian = system: OVCAR-8 ovarian
PC-3 prostate = system: PC-3 prostate
RPMI-8226 leukemia = system: RPMI-8226 leukemia
RXF 393 renal = system: RXF 393 renal
SF-268 CNS = system: SF-268 CNS
SF-295 CNS = system: SF-295 CNS
SF-539 CNS = system: SF-539 CNS
SK-MEL-2 melanoma = system: SK-MEL-2 melanoma
SK-MEL-28 melanoma = system: SK-MEL-28 melanoma
SK-MEL-5 melanoma = system: SK-MEL-5 melanoma
SK-OV-3 ovarian = system: SK-OV-3 ovarian
SN12C renal = system: SN12C renal
SNB-19 CNS = system: SNB-19 CNS
SNB-75 CNS = system: SNB-75 CNS
SR leukemia = system: SR leukemia
SW-620 colon = system: SW-620 colon
T-47D breast = system: T-47D breast
TK-10 renal = system: TK-10 renal
U251 CNS = system: U251 CNS
UACC-257 melanoma = system: UACC-257 melanoma
UACC-62 melanoma = system: UACC-62 melanoma
UO-31 renal = system: UO-31 renal

## COc1cc2c(cc1O)N=C[C@@H]1C[C@@H](F)CN1C2=O
NCI-H226 lung
  TGI: 5.39 µM
NCI-H23 lung
  GI50: 1.82 µM
  TGI: 4.44 µM
NCI-H460 lung
  GI50: 1.79 µM
  TGI: 4.61 µM
NCI-H522 lung
  GI50: 0.289 µM
  TGI: 0.97 µM
NCI/ADR-RES ovarian
  GI50: 1.87 µM
  TGI: 6.15 µM
OVCAR-3 ovarian
  TGI: 0.808 µM
OVCAR-4 ovarian
  GI50: 3.93 µM
  TGI: 14.5 µM
OVCAR-5 ovarian
  GI50: 0.965 µM
  TGI: 6.66 µM
OVCAR-8 ovarian
  GI50: 6.37 µM
  TGI: 13.9 µM
PC-3 prostate
  GI50: 1.83 µM
  TGI: 9.18 µM
RPMI-8226 leukemia
  GI50: 0.216 µM
  TGI: 0.552 µM
RXF 393 renal
  GI50: 0.898 µM
  TGI: 2.16 µM
SF-268 CNS
  GI50: 0.449 µM
  TGI: 9.97 µM
SF-295 CNS
  GI50: 0.712 µM
  TGI: 4.33 µM
SF-539 CNS
  GI50: 1.19 µM
  TGI: 4.32 µM
SK-MEL-2 melanoma
  GI50: 1.16 µM
SK-MEL-28 melanoma
  GI50: 2.9 µM
  TGI: 9.39 µM
SK-MEL-5 melanoma
  GI50: 0.817 µM
  TGI: 2.32 µM
SK-OV-3 ovarian
  GI50: 5.91 µM
  TGI: 18.3 µM
SN12C renal
  GI50: 2.52 µM
  TGI: 8.71 µM
SNB-19 CNS
  GI50: 2.79 µM
  TGI: 8.66 µM
SNB-75 CNS
  GI50: 15.5 µM
  TGI: 52.4 µM
SR leukemia
  GI50: 0.173 µM
  TGI: 0.602 µM
SW-620 colon
  GI50: 1.16 µM
  TGI: 4.9 µM
T-47D breast
  GI50: 5.29 µM
  TGI: 32.2 µM
TK-10 renal
  GI50: 1.9 µM
  TGI: 13 µM
U251 CNS
  GI50: 1.83 µM
  TGI: 10.9 µM
UACC-257 melanoma
  GI50: 17.5 µM
  TGI: 34.4 µM
UACC-62 melanoma
  GI50: 1.81 µM
  TGI: 3.46 µM
UO-31 renal
  GI50: 1.14 µM
  TGI: 9.62 µM
